Measurements reported in US10301320B2, “Compositions and methods of modulating 15-PGDH activity” (CASE WESTERN RESERVE UNIVERSITY, priority 2012, dated 2019).
Like-named read-outs stand apart in the source and are kept apart here.

Assays:
[1] = test system: V9m reporter cell line expressing a 15-PGDH luciferase fusion construct; assay: 15-PGDH-luciferase fusion gene reporter induction, V9m cell line; format: cell-based; conditions: for percent reporter induction over basal at […]: read-out: V9M-SC3 Reporter activity % ([…]), Table 18, read-out: V9M-SC3 Reporter activity % (7.5 μM)
Source text: (§1) These cell lines are Vaco-9m (V9m), LS174T, Vaco503 (V503). […] Value of 1.0 on the Y-axis is the basal level of reporter activity in cells treated with drug free DMSO vehicle.
(§2) This Example provides data on a group of structural analogues of SW033291. Data provided includes level of induction of a 15-PGDH-luciferase fusion gene reporter, recorded as % increased luciferase activity over basal level, in three colon cancer cell lines, V9m, V503, and LS174T, engineered to contain the reporter, and treated with either 2.5 uM or 7.5 uM compound (i.e., Values are recorded on a scale where 100 indicates of doubling of luciferase activity over baseline level).
(§3) FIGS. 27(A-C) show graphs that show the level of compound's activity in inducing the 15-PGDH-luciferase fusion reporter in three different test cell line backgrounds, V9m, LS174T, and V503. Each compound was tested at two concentrations, 2.5 uM, and 7.5 uM. Y-axis is luciferase activity.
(§4) Data provided include level of induction of a 15-PGDH-luciferase fusion gene reporter, recorded as % induction of luciferase activity over basal level, in three colon cancer cell lines, V9m, V503, and LS174T, engineered to contain the reporter, and treated with either 2.5 uM or 7.5 uM compound. […] Additionally, for selected compounds is recorded the decrease in PGE2 levels in the media of compound treated A549 cells that have been stimulated with IL-1 beta. Additionally recorded for selected compounds is the effect on A549 cell viability as measured by a CellTiter-Glo assay, and the effect of compounds on A549 cell colony formation.

[2] = test system: LS174T reporter cell line expressing a 15-PGDH luciferase fusion construct; assay: 15-PGDH-luciferase fusion gene reporter induction, LS174T cell line; format: cell-based; conditions: Homo sapiens
Source text: as §1, §2, §3, §4

[3] = test system: Vaco503 reporter cell line expressing a 15-PGDH luciferase fusion construct; assay: 15-PGDH-luciferase fusion gene reporter induction, Vaco503 (V503) cell line; format: cell-based
Source text: as §1, §2, §3, §4

[4] = biological target: recombinant 15-PGDH protein (Homo sapiens (Human), UniProt P15428); assay: Inhibition of enzymatic activity of recombinant 15-PGDH in vitro; format: biochemical; conditions: read-out: Enzyme inhibition % ([…]), Table 18, […] compound;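 note: activity of recombinant human 15-PGDH assayed in vitro using PGE2 as the substrate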
[5] = read-out: V9M reporter activity ([…]), Table 17, […], % induction over basal level, read-out: V9M reporter activity (2.5 μM)
[6] = read-out: V9M reporter activity ([…]), Table 17, […], read-out: V9M reporter activity (7.5 μM)
[7] = read-out: 1S174T reporter activity ([…]), Table 17, […], read-out: 1S174T reporter activity (7.5 μM)
[8] = read-out: LS174T reporter activity ([…]), Table 17, […], read-out: LS174T reporter activity (2.5 μM)
[9] = read-out: V503 reporter activity ([…]), Table 17, […], read-out: V503 reporter activity (2.5 μM)
[10] = read-out: V503 reporter activity ([…]), Table 17, […], read-out: V503 reporter activity (7.5 μM)
[11] = read-out: Enzyme inhibition % (2.5 μM)
[12] = read-out: Enzyme inhibition % (7.5 μM)
[13] = read-out: V9M reporter activity ([…]), […], % increased luciferase activity over basal level, 100 = doubling, read-out: V9M reporter activity (2.5 uM)
[14] = read-out: V9M reporter activity ([…]), […], % increased luciferase activity over basal level, read-out: V9M reporter activity (7.5 uM)
[15] = read-out: LS174T reporter activity ([…]), […], % increased luciferase activity over basal level, read-out: LS174T reporter activity (2.5 uM)
[16] = read-out: LS174T reporter activity ([…]), […], % increased luciferase activity over basal level, read-out: LS174T reporter activity (7.5 uM)
[17] = read-out: V503 reporter activity ([…]), […], % increased luciferase activity over basal level, read-out: V503 reporter activity (2.5 uM)
[18] = read-out: V503 reporter activity ([…]), […], % increased luciferase activity over basal level, read-out: V503 reporter activity (7.5 uM)

Sequence of recombinant 15-PGDH protein (P15428 whole entry): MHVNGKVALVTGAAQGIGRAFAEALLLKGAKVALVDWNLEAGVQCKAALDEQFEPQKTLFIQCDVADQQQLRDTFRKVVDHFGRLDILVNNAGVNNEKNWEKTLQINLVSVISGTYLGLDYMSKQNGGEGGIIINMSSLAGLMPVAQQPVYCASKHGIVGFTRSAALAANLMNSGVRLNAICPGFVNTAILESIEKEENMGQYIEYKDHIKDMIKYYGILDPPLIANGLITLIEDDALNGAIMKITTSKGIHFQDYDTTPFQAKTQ

Compound	inhibition at […] [4, 11] [%]	inhibition at […] [4, 12] [%]	percent reporter induction over basal at […] ([1]; […]) [%]	further results
COc1ccc(N(CC(=O)Nc2ccccc2Br)S(=O)(=O)c2ccc(NC(C)=O)cc2)cc1 [compound 771064]	–	–	–	activation at […] [1, 5]: 43.3%; activation at […] [1, 6]: -19.2%; activation at […] [2, 7]: -29.6%; activation at […] [2, 8]: -2.11%; activation at […] [3, 9]: -13.8%; activation at […] [3, 10]: -24.8%
COc1ccc(S(=O)(=O)N(CC(=O)Nc2cccc(Br)c2)c2cc(Cl)ccc2OC)cc1OC [compound 771130]	–	–	–	activation at […] [1, 5]: 8.67%; activation at […] [1, 6]: 5.84%; activation at […] [2, 7]: -0.48%; activation at […] [2, 8]: 8.66%; activation at […] [3, 9]: -10.2%; activation at […] [3, 10]: -3.48%
Nc1c(C(=O)O)sc2nc(-c3cccs3)cc(-c3ccccc3)c12 [SW206979, 3-Amino-4-phenyl-6-(thiophen-2-yl)thieno[2,3-b]pyridine-2-carboxylic acid]	–	–	–	activation at […] [1, 13]: -12.6%; activation at […] [1, 14]: -20.6%; activation at […] [2, 15]: 34.3%; activation at […] [2, 16]: 32.8%; activation at […] [3, 17]: 21.7%; activation at […] [3, 18]: 42.9%
COc1ccc(S(=O)(=O)N(CC(=O)Nc2ccc(Br)cc2)c2cc(Cl)ccc2OC)cc1OC [compound 771432]	–	–	–	activation at […] [1, 5]: -7.11%; activation at […] [1, 6]: -3.13%; activation at […] [2, 7]: 4.24%; activation at […] [2, 8]: 3.86%; activation at […] [3, 9]: 33.7%; activation at […] [3, 10]: 42.8%
O=C(CN(c1ccc2c(c1)OCCO2)S(=O)(=O)c1ccccc1)Nc1cccnc1 [701217-00-7]	10.1	13.1	79.5	–
COc1ccc(Cl)cc1N(CC(=O)Nc1cccnc1)S(=O)(=O)c1ccccc1 [328012-52-8]	67.4	82.1	0.51	–
COc1ccc(S(=O)(=O)N(CC(=O)Nc2ccccc2Br)c2cc(Cl)ccc2OC)cc1OC [compound 771081]	–	–	–	activation at […] [1, 5]: -14.2%; activation at […] [1, 6]: 7.58%; activation at […] [2, 7]: 15.4%; activation at […] [2, 8]: 5.74%; activation at […] [3, 9]: 31.9%; activation at […] [3, 10]: 51.7%
CCOc1ccc(N(CC(=O)Nc2cccnc2)S(=O)(=O)c2ccccc2)cc1 [428473-22-7]	3.76	8.67	2.05	–
COc1ccc(S(=O)(=O)N(CC(=O)Nc2cccc(N(C)S(C)(=O)=O)c2)c2cc(Cl)ccc2OC)cc1OC [compound 924787]	–	–	–	activation at […] [1, 5]: -1.45%; activation at […] [1, 6]: 18.1%; activation at […] [2, 7]: 13.1%; activation at […] [2, 8]: 4.32%; activation at […] [3, 9]: 21.9%; activation at […] [3, 10]: 48%
COc1ccc(OC)c(N(CC(=O)Nc2ccc(C)cc2)S(=O)(=O)c2ccccc2)c1 [311333-86-5]	34	–	117	–
CCc1ccccc1N(CC(=O)Nc1cccnc1)S(=O)(=O)c1ccccc1 [528580-69-0]	-8.22	10.2	-0.5	–
CCCC[S+]([O-])c1ncccc1[N+](=O)[O-] (stereo not shown) [SW208069, 2-(butylsulfinyl)-3-nitropyridine]	–	–	–	activation at […] [1, 13]: -14.5%; activation at […] [1, 14]: 0.23%; activation at […] [2, 15]: 19.5%; activation at […] [2, 16]: 15.1%; activation at […] [3, 17]: 19.5%; activation at […] [3, 18]: 15.1%
CCc1ccc(N(CC(=O)Nc2cccnc2)S(=O)(=O)c2ccccc2)cc1 [461439-84-9]	9.28	3.35	-41.8	–
COc1ccc(N(CC(=O)Nc2ccccc2Br)S(=O)(=O)c2ccccc2[N+](=O)[O-])c(OC)c1 [compound 1002065]	–	–	–	activation at […] [1, 5]: 7.38%; activation at […] [1, 6]: 18.6%; activation at […] [2, 7]: 15.2%; activation at […] [2, 8]: 9.9%; activation at […] [3, 9]: 38.1%; activation at […] [3, 10]: 52.5%
Nc1c([S+]([O-])Cc2ccccc2)sc2nc(-c3cccs3)cc(-c3ccccc3)c12 (stereo not shown) [SW033292]	–	–	–	activation at […] [1, 13]: 1.51%
COc1ccc(OC)c(N(CC(=O)Nc2ccc(Cl)cc2)S(=O)(=O)c2ccccc2)c1 [339589-53-6]	35.5	37.4	4.25	–

Second part, led by results:

inhibition at […] [4, 11] [%]	inhibition at […] [4, 12] [%]	Compound	percent reporter induction over basal at […] ([1]; […]) [%]	further results
31.8	50.7	COc1ccc(OC)c(N(CC(=O)Nc2cccnc2)S(=O)(=O)c2ccc(OC)c(OC)c2)c1 [680599-58-0]	-22.5	–
9.65	17.5	O=C(CN(c1ccccc1)S(=O)(=O)c1ccccc1)Nc1cccnc1 [331727-07-2]	120	–
16.4	49.2	O=C(CN(c1cc(Cl)ccc1Cl)S(=O)(=O)c1ccccc1)Nc1cccnc1 [833428-03-8]	17.4	–
23.5	33.4	COc1ccc(N(CC(=O)Nc2cccnc2)S(=O)(=O)c2ccccc2)c(OC)c1 [310875-38-8]	-16.4	–
9.72	-3.12	COC(=O)c1ccccc1NC(=O)CN(c1cc(OC)ccc1OC)S(=O)(=O)c1ccccc1 [333449-58-4]	71.2	–
21.7	9.25	COc1ccc(OC)c(N(CC(=O)Nc2ccccc2C(N)=O)S(=O)(=O)c2ccccc2)c1 [530107-57-4]	116	–
10.8	12.1	COc1ccc(N(CC(=O)Nc2cccnc2)S(=O)(=O)c2ccccc2)cc1 [418783-65-0]	67.2	–
-20.6	27.9	COc1ccc(OC)c(N(CC(=O)Nc2cccnc2)S(C)(=O)=O)c1 [527699-66-7]	-37.2	–
19.1	22	COc1ccc(OC)c(N(CC(=O)Nc2ccc(Cl)c(Cl)c2)S(=O)(=O)c2ccccc2)c1 [339589-55-8]	8	–
-5.31	5.85	COc1ccc(OC)c(N(CC(=O)NC2CCCCC2)S(=O)(=O)c2ccccc2)c1 [333446-93-8]	44	–
18.7	34.7	COc1ccc(OC)c(N(CC(=O)Nc2cccc(Cl)c2)S(=O)(=O)c2ccccc2)c1 [311315-25-0]	–	activation at […] ([2]; read-out: Ls174T-SC1 reporter activity, % ([…]), Table 18, […], read-out: Ls174T-SC1 reporter activity, % (2.5μM)): 62.6%; activation at […] ([2]; read-out: Ls174T-SC1 reporter activity, % ([…]), Table 18, […], read-out: Ls174T-SC1 reporter activity, % (7.5 μM)): 75.8%
67.4	84.6	COc1ccc(OC)c(N(CC(=O)Nc2cccnc2)S(=O)(=O)c2ccc(C)cc2)c1 [505072-23-1]	71.5	–
11	5.37	COc1cccc(N(CC(=O)Nc2cccnc2)S(=O)(=O)c2ccccc2)c1 [335392-39-7]	7.18	–
39.8	56.4	COc1ccc(OC)c(N(CC(=O)Nc2ccc(F)cc2)S(=O)(=O)c2ccccc2)c1 [426231-26-7]	2.5	–
8.95	34.8	COc1ccccc1N(CC(=O)Nc1cccnc1)S(=O)(=O)c1ccccc1 [367929-80-4]	-19	–
